# According to paper PMC8945686, “Anticancer Effects with Molecular Docking Confirmation of Newly Synthesized Isatin Sulfonamide Molecular Hybrid Derivatives against Hepatic Cancer Cell Lines” (Biomedicines, 2022):
# “And” between values parts separate entries of the source, which are not always exact repeats. Equal entries are not always repeated.
# Experiments:
# [1] = system: HepG2 cells; assay: Annexin V/FITC-PI apoptosis assay; type: cell-based, human; details: for %Cell Death Early Apoptosis / %Cell Death Late Apoptosis / %Cell Death Total Apoptosis / Necrosis: HepG2, IC50 of the compound, 24 h (method says 48 h)
# Method: Annexin V/PI double staining kit (eBiosciencesDx) was used to detect apoptotic activity of the selected isatin sulfonamide derivatives. The Annexin V corresponding signal provides a very sensitive marker for cellular apoptosis, while PI was used to detect necrotic or late apoptotic cells, identified by the loss of plasma integrity and loss of nuclear membranes.
# Briefly, 1 × 10^5 cells/mL of HepG2 cells were seeded into a 6-well plate and incubated at 37 °C, 5% CO2, overnight. […] After time elapsed, trypsinization of cells was carried out. Washing was done by PBS once, followed by fixation using 70% ethanol. Fixed cells were stored at 4 °C for 2 h, then centrifuged at 500× g for 5 min. Again, cells were washed with PBS prior to staining. An amount of 200 μL of the staining solution (annexin V- fluorescein 5-isothiocyanate (FITC) and PI in binding buffer (10 mM HEPES, 140 mM NaCl, and 2.5 mM CaCl2 at pH 7.4)) were added to the cell suspension and incubated at 37 °C for 20 to 30 min in dark and analyzed with a fluorescence-activated cell sorter (FACS) (BD FACSCalibur, BD Biosciences, California, USA). Data were analyzed using ModFit LT v2.0 (Verity Software House, Topsham, Maine, USA).
# These plots were divided into four regions corresponding to: • (1) Viable cells, which are negative to both probes (PI/FITC −/−), • (2) Apoptotic cells, which are PI negative and Annexin positive (PI/FITC −/+), • (3) Late apoptotic cells, which are both PI and Annexin positive (PI/FITC +/+), • (4) Necrotic cells, which are PI positive and Annexin negative (PI/FITC+/−).
# [2] = system: mice; assay: In vivo acute (14-day) oral toxicity study; details: for S.ALT / S.AST / S.Creatinine / S.D.Bilirubin / S.T.Bilirubin / S.Urea: 14 days after single dose, doxorubicin 15 mg/kg I.P; for S.ALT / S.AST / S.Creatinine / S.D.Bilirubin / S.T.Bilirubin / S.Urea / Histopathology of liver and kidney tissues (H and E) versus control groups / Kidney histology (H and E photomicrographs) / Liver histology (H and E photomicrographs): compounds 250 mg/kg oral; for Histopathology of liver and kidney tissues (H and E) versus control groups / Kidney histology (H and E photomicrographs) / Liver histology (H and E photomicrographs) / Physical or abnormal changes (body weight, skin, fur, eyes, behavior, overall appearance): 14 days; for Histopathology of liver and kidney tissues (H and E) versus control groups / Kidney histology (H and E photomicrographs) / Liver histology (H and E photomicrographs): Dox 15 mg/kg i.p.; for Survival over the treatment period (14 days) / Physical or abnormal changes (body weight, skin, fur, eyes, behavior, overall appearance): single acute oral dose of 250 mg/kg
# Source text: GPower 3.0.10 software was used to estimate the sample size needed for the experiment and the number of mice per group but, according to the Organization for Economic Cooperation and Development (OECD) Test Guidelines No. 407 (OECD, 2008 and updated 2017) and under the International Academy of Science’s Guide for the Care and Use of Laboratory Animals, as well as the ARRIVE guidelines, to use the least number of mice per group for the acute single dose oral toxicity test.
# Animals were divided randomly into nine groups (5 animals per group). Before the experiment, the body weight (BW) of all mice was recorded. All mice were made to fast for 24 h and treated once (day zero) then carefully monitored for 14 days.
# Normal control group: mice received saline orally once;
# Negative control group: mice received vehicle (DMSO) orally once;
# Positive control group: mice were injected with Dox (15 mg/kg BW, i.p.) once.
# Isatin-sulfonamide-derivative-compound-treated groups (2a, 3a, 3d and 4b, 4c and 4d) of mice received 250 mg/kg BW of each orally once.
# The animals’ BWs were recorded at the end of the 14 days of observation. Blood samples were collected from the retro-orbital plexus and allowed to clot. Sera were prepared by centrifugation at 4000 rpm for 15 min and then kept frozen at − 80 °C for liver and kidney function tests (LFTs and KFTs). Thereafter, mice were deprived of food overnight, euthanized, and sacrificed by cervical dislocation. Liver and kidney tissues were collected, washed with ice-cold saline, and weighed. Excised weighed livers and kidneys were fixed in a suitable buffer for histological examination.
# Liver and kidney tissues were fixed in 10% neutral buffered formaldehyde overnight and then embedded in paraffin, […] in serial grades of alcohols, cleared in xylene, and were subjected to […], where 4 μm thick tissue sections were cut by rotatory microtome. Tissue sections were stained with hematoxylin and eosin (H and E) for histological examination using full HD light microscopic imaging system (Leica Microsystems GmbH, Wetzlar, Germany). Standard procedures for sample fixation and staining were done as previously described.
# [3] = system: EGFR; assay: EGFR level in HepG2 cell lysate (ELISA); type: cell-based, human; details: HepG2 treated at IC50, 48 h
# Method: As previously described, with little modification, HepG2 cells were cultured in T25 flask until they reached 30% confluency. […] After treatment, cells were washed by PBS, trypsinized and centrifuged at 10,000 rpm. The formed pellets were washed twice with PBS and lysed in 1 mL ice-cold radio immunoprecipitation assay (RIPA) lysis buffer (50 mM Tris-HCl, pH 8.0, 150 mM NaCl, 1% Triton X-100, 0.5% sodium deoxycholate, 0.1% sodium dodecyl sulfate) and kept on ice for 20 min. Then, the mixture was centrifuged at 15,000 rpm for 15 min to remove any cell debris. The cell lysate was aliquoted and stored at −80 °C for determination of protein using Pierce BCA Protein Assay Kit (Thermo Fisher Scientific, Waltham/Boston, USA) according to manufacturer’s recommendations and determination of other biochemical parameters including EGFR, urokinase Plasminogen Activator (uPA), B-Cell Lymphoma-2 (Bcl-2), heparanase, and oxidative stress markers (glutathione; GSH and malonaldehyde; MDA).
# Levels of EGFR [37] and heparanase in cell lysate were investigated using commercially available enzyme-linked immunosorbent assay (ELISA) kits supplied by Abcam (Cat. No. ab269558, ab256401, respectively). Levels of uPA [39] were measured using ELISA kit supplied by Creative Diagnostics (New York, USA, Cat. No. DEIA1630). Bcl-2 levels were determined using ELISA kit supplied by Zymed Laboratories, Carlsbad, California (Cat. No. 99-0042). Briefly, standards and samples were added to corresponding 96-well plate coated with suitable antibody. After the washing step, biotinylated anti-human antibody was added to each well. After washing away unbound biotinylated antibody, horseradish peroxidase (HRP)-conjugated streptavidin was pipetted into each well. A peroxidase substrate solution was added to all wells, after washing, and the color developed was proportionate to the amount of EGFR bound. Finally, the stop solution was added and the color intensity was measured at 450 nm.
# [4] = In vitro safety/cell viability MTT assay on normal RPE1 cells; type: cell-based, human; details: human, RPE1 cells (noncancerous), normal RPE1 cells, MTT
# [5] = system: RPE1 cells; assay: as above; type: cell-based, human; details: RPE1, MTT, in words
Structure (SMILES),%Cell Death Early Apoptosis [1] [%],%Cell Death Late Apoptosis [1] [%],%Cell Death Total Apoptosis [1],Necrosis [1] [%],"Total apoptosis, fold greater than negative control HepG2 cells ([1]; HepG2, negative control 1.47%) [fold]",S.ALT [2],S.AST [2],S.Creatinine [2],S.D.Bilirubin [2],S.T.Bilirubin [2],S.Urea [2],Histopathology of liver and kidney tissues (H and E) versus control groups [2],Kidney histology (H and E photomicrographs) [2],Liver histology (H and E photomicrographs) [2],Survival over the treatment period (14 days) [2],"Physical or abnormal changes (body weight, skin, fur, eyes, behavior, overall appearance) [2]",EGFR level in cell lysate [3],CC50 at 48 h [4] [µM],"viability at 48 h, 100 p.p.m (μg/mL) [4] [%]",Effect towards the noncancerous cell line (RPE1) [5]
"Cc1ccc(C(=O)CC2(O)C(=O)Nc3ccc(S(=O)(=O)N4CCCCC4)cc32)cc1 (stereo not drawn) [Compound 3a, 3-hydroxy-3-(2-oxo-2-(p-tolyl)ethyl)-5-(piperidin-1-ylsulfonyl)indolin-2-one]",3.56,29.58,46.3% and 46.29%,13.15,31.49,27.05 ± 0.81 ^^ U/L,36.78 ± 0.33 ^^ U/L,0.82 ± 0.03 ^^ mg/dL,0.16 ± 0.002 ^^ mg/dL,0.65 ± 0.026 ^^ mg/dL,51.25 ± 0.36 ^^ mg/dL,no differences in the hepatic or renal tissue structures,intact well-organized histological features of renal parenchyma,no inflammatory cell infiltrates,survived,No physical or abnormal changes were observed,"42 ± 2.3 pmol/mg protein and 42 ± 2.3 ^a*^,b* pmol/mg protein",> 100,74,non-cytotoxic effect
"CC(=O)Nc1ccc(C(=O)C=C2C(=O)Nc3ccc(S(=O)(=O)N4CCCCC4)cc32)cc1 [Compound 4b, N-(4-(2-(2-oxo-5-(piperidin-1-ylsulfonyl)indolin-3-ylidene)acetyl)phenyl)acetamide]",6.12,12.61,28.1% and 28.14%,9.41,–,27.95 ± 0.34 ^^ U/L,35.18 ± 0.47 ^^ U/L,0.88 ± 0.06 ^^ mg/dL,0.17 ± 0.001 ^^ mg/dL,0.70 ± 0.013 ^^ mg/dL,62.60 ± 3.64 ^^ mg/dL,no differences in the hepatic or renal tissue structures,almost intact histological features of renal parenchyma,apparently intact hepatocytes,survived,No physical or abnormal changes were observed,"87.49 ± 3.4 ^a*^,b* pmol/mg protein",> 100,66.4,non-cytotoxic effect
"CC(=O)Nc1cccc(C(=O)C=C2C(=O)Nc3ccc(S(=O)(=O)N4CCCCC4)cc32)c1 [Compound 4c, N-(3-(2-(2-oxo-5-(piperidin-1-ylsulfonyl)indolin-3-ylidene)acetyl)phenyl)acetamide]",2.88,18.08,32.0% and 32.02%,11.06,–,28.41 ± 0.28 ^^ U/L,37.35 ± 1.47 ^^ U/L,0.79 ± 0.04 ^^ mg/dL,0.16 ± 0.007 ^^ mg/dL,0.73 ± 0.014 ^^ mg/dL,55.76 ± 5.64 ^^ mg/dL,no differences in the hepatic or renal tissue structures,almost intact well-organized morphological features,almost intact histological features of hepatic parenchyma,survived,No physical or abnormal changes were observed,"54 ± 2.4 ^a*^,b* pmol/mg protein",> 100,80.7,non-cytotoxic effect
"COc1cccc2c1C(=O)c1c(O)c3c(c(O)c1C2=O)C[C@@](O)(C(=O)CO)C[C@@H]3O[C@H]1C[C@H](N)[C@H](O)[C@H](C)O1 [Doxorubicin, reference compound]",1.85,26.27,42.38%,14.26,–,"52.97 ± 0.92 *^,# U/L","46.93 ± 0.30 *^,# U/L","1.57 ± 0.02 *^,# mg/dL","0.36 ± 0.026 *^,# mg/dL",1.45 ± 0.072 mg/dL,"83.27 ± 0.95 *^,# mg/dL",hepatic and renal pathology were obvious,dilatation of the cortical tubular segments,hepatocellular necrotic changes,–,–,27.5 ± 1.7 ^a* pmol/mg protein,–,–,–
